From patent US4839357A, “Renin inhibitors containing phenylalanyl-histidine replacements” (Merck & Co., Inc., priority 1987, dated 1989)
Square brackets hold non-standard residues; d marks the D form. Peptide text beside a SMILES is read from it. * marks the point of attachment. Sta = CC(C)C[C@H](N)[C@@H](O)CC(=O)O; Isovaleryl = CC(C)CC(=O)*

Key:
renin = molecular target: T1, renin (Homo sapiens, UniProt P00797); test: renin inhibition (IC50 printed in the synthesis text, no method described); assay type: biochemical
T1 sequence (P00797 67-406): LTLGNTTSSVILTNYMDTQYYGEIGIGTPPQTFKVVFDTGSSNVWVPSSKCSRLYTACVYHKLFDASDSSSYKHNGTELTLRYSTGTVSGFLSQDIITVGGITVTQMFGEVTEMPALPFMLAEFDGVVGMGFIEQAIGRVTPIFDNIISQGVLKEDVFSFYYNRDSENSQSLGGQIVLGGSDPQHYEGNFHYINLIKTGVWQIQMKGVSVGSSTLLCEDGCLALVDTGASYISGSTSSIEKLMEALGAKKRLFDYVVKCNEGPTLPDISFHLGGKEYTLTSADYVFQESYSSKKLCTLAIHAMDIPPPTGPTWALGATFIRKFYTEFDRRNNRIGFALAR

hog renin = settings: after the injection of hog renin into nephrectomized rats; cited from earlier work

SMILES	IC50 (renin)	blood pressure in vivo (hog renin)
CC(C)S(=O)(=O)C[C@@H](CCc1ccccc1)C(=O)N[C@@H](Cc1c[nH]cn1)C(=O)N[C@@H](CC1CCCCC1)[C@@H](O)CC(=O)NC1CN2CCC1CC2 (stereo partly drawn) [3-benzyl-2-(S)-(isopropylsulfonylmethyl)propionyl-L-histidyl-(3S,4S)-4-amino-5-cyclohexyl 3-hydroxypentanoyl 3-quinuclidinyl amide]	11 nM	–
CC(C)CC(=O)N[C@H](C(=O)N[C@H](C(=O)N[C@@H](CC(C)C)[C@@H](O)CC(=O)N[C@@H](C)C(=O)N[C@@H](CC(C)C)[C@@H](O)CC(=O)O)C(C)C)C(C)C [pepstatin] (Isovaleryl-VV[Sta]A[Sta]-OH)	–	reduces blood pressure
